Several values for one entry are separate records, joined by “and”; a condition that tells them apart may be missing. Equal entries are not always repeated.
Assay: xn = mol fraction of the nth substance listed

OCCOCCO + O
Settings	viscosity
293.15 K, 100 kPa, x2 = 0.013	37.31 mPa·s
293.15 K, 100 kPa, x2 = 0.037	35.38 mPa·s and 33.15 mPa·s
293.15 K, 100 kPa, x2 = 0.038	34.7 mPa·s
293.15 K, 100 kPa, x2 = 0.075	34.97 mPa·s
293.15 K, 100 kPa, x2 = 0.082	34.55 mPa·s
298.15 K, 100 kPa, x2 = 0.013	29.02 mPa·s
298.15 K, 100 kPa, x2 = 0.037	27.76 mPa·s
298.15 K, 100 kPa, x2 = 0.075	27.47 mPa·s
298.15 K, 100 kPa, x2 = 0.082	27.12 mPa·s
298.15 K, 101.33 kPa, x2 = 0.1041	25.71 mPa·s
298.15 K, 101.33 kPa, x2 = 0.2105	24.14 mPa·s
298.15 K, 101.33 kPa, x2 = 0.2697	22.9 mPa·s
298.15 K, 101.33 kPa, x2 = 0.4009	19.9 mPa·s
298.15 K, 101.33 kPa, x2 = 0.5145	16.51 mPa·s
298.15 K, 101.33 kPa, x2 = 0.6157	12.99 mPa·s
298.15 K, 101.33 kPa, x2 = 0.7095	9.442 mPa·s
298.15 K, 101.33 kPa, x2 = 0.825	5.193 mPa·s
298.15 K, 101.33 kPa, x2 = 0.9059	2.772 mPa·s
303.15 K, 100 kPa, x2 = 0.013	23.06 mPa·s
303.15 K, 100 kPa, x2 = 0.038	21.92 mPa·s
303.15 K, 100 kPa, x2 = 0.075	21.95 mPa·s
303.15 K, 101 kPa, x1 = 0.002	0.836 mPa·s
303.15 K, 101 kPa, x1 = 0.004	0.863 mPa·s
303.15 K, 101 kPa, x1 = 0.005	0.883 mPa·s
303.15 K, 101 kPa, x1 = 0.007	0.91 mPa·s
303.15 K, 101 kPa, x1 = 0.009	0.938 mPa·s
303.15 K, 101 kPa, x1 = 0.01	0.975 mPa·s and 1.02 mPa·s and 1.076 mPa·s
303.15 K, 101 kPa, x1 = 0.018	1.171 mPa·s
303.15 K, 101.33 kPa, x1 = 0.0004	0.778 mPa·s
303.15 K, 101.33 kPa, x1 = 0.0007	0.785 mPa·s
303.15 K, 101.33 kPa, x1 = 0.0015	0.788 mPa·s
303.15 K, 101.33 kPa, x1 = 0.0027	0.804 mPa·s
303.15 K, 101.33 kPa, x1 = 0.0047	0.836 mPa·s
303.15 K, 101.33 kPa, x1 = 0.0193	1.02 mPa·s
303.15 K, 101.33 kPa, x1 = 0.0548	1.579 mPa·s
303.15 K, 101.33 kPa, x1 = 0.0991	2.467 mPa·s
303.15 K, 101.33 kPa, x1 = 0.1966	4.98 mPa·s
303.15 K, 101.33 kPa, x1 = 0.2956	7.943 mPa·s
303.15 K, 101.33 kPa, x1 = 0.3956	10.97 mPa·s
303.15 K, 101.33 kPa, x1 = 0.4905	13.62 mPa·s
303.15 K, 101.33 kPa, x1 = 0.6406	17.06 mPa·s
303.15 K, 101.33 kPa, x1 = 0.8543	20.37 mPa·s
308.15 K, 100 kPa, x2 = 0.013	18.69 mPa·s
308.15 K, 100 kPa, x2 = 0.037	18.11 mPa·s and 16.84 mPa·s
308.15 K, 100 kPa, x2 = 0.082	17.7 mPa·s
308.15 K, 101 kPa, x1 = 0.002	0.736 mPa·s
308.15 K, 101 kPa, x1 = 0.004	0.753 mPa·s
308.15 K, 101 kPa, x1 = 0.005	0.805 mPa·s
308.15 K, 101 kPa, x1 = 0.007	0.832 mPa·s
308.15 K, 101 kPa, x1 = 0.009	0.867 mPa·s
308.15 K, 101 kPa, x1 = 0.01	0.902 mPa·s and 0.938 mPa·s and 0.991 mPa·s
308.15 K, 101 kPa, x1 = 0.018	1.082 mPa·s
308.15 K, 101 kPa, x1 = 0.02	1.028 mPa·s
308.15 K, 101 kPa, x1 = 0.7525	15.65 mPa·s
308.15 K, 101.33 kPa, x1 = 0.0004	0.704 mPa·s
308.15 K, 101.33 kPa, x1 = 0.0007	0.71 mPa·s
308.15 K, 101.33 kPa, x1 = 0.0015	0.717 mPa·s
308.15 K, 101.33 kPa, x1 = 0.0027	0.73 mPa·s
308.15 K, 101.33 kPa, x1 = 0.0047	0.749 mPa·s
308.15 K, 101.33 kPa, x1 = 0.0193	0.905 mPa·s
308.15 K, 101.33 kPa, x1 = 0.0991	2.107 mPa·s
308.15 K, 101.33 kPa, x1 = 0.1966	4.169 mPa·s
308.15 K, 101.33 kPa, x1 = 0.2956	6.484 mPa·s
308.15 K, 101.33 kPa, x1 = 0.3956	8.911 mPa·s
308.15 K, 101.33 kPa, x1 = 0.4905	10.95 mPa·s
308.15 K, 101.33 kPa, x1 = 0.5794	12.64 mPa·s
308.15 K, 101.33 kPa, x1 = 0.775	15.47 mPa·s
308.15 K, 101.33 kPa, x1 = 0.8543	16.25 mPa·s
308.15 K, 101.33 kPa, x1 = 0.917	16.82 mPa·s
313.15 K, 100 kPa, x2 = 0.013	15.39 mPa·s
313.15 K, 100 kPa, x2 = 0.037	14.96 mPa·s
313.15 K, 100 kPa, x2 = 0.038	15.25 mPa·s
313.15 K, 100 kPa, x2 = 0.075	14.8 mPa·s
313.15 K, 101 kPa, x1 = 0.002	0.67 mPa·s
313.15 K, 101 kPa, x1 = 0.004	0.685 mPa·s
313.15 K, 101 kPa, x1 = 0.005	0.703 mPa·s
313.15 K, 101 kPa, x1 = 0.007	0.738 mPa·s
313.15 K, 101 kPa, x1 = 0.009	0.78 mPa·s
313.15 K, 101 kPa, x1 = 0.01	0.83 mPa·s and 0.872 mPa·s and 0.907 mPa·s
313.15 K, 101 kPa, x1 = 0.018	0.994 mPa·s
313.15 K, 101 kPa, x1 = 0.02	0.958 mPa·s
318.15 K, 100 kPa, x2 = 0.013	12.84 mPa·s
318.15 K, 100 kPa, x2 = 0.037	12.51 mPa·s
318.15 K, 100 kPa, x2 = 0.038	12.4 mPa·s
318.15 K, 100 kPa, x2 = 0.075	12.37 mPa·s
318.15 K, 101 kPa, x1 = 0.002	0.612 mPa·s
318.15 K, 101 kPa, x1 = 0.004	0.621 mPa·s
318.15 K, 101 kPa, x1 = 0.005	0.654 mPa·s
318.15 K, 101 kPa, x1 = 0.007	0.688 mPa·s
318.15 K, 101 kPa, x1 = 0.009	0.729 mPa·s
318.15 K, 101 kPa, x1 = 0.01	0.779 mPa·s and 0.821 mPa·s and 0.864 mPa·s
318.15 K, 101 kPa, x1 = 0.018	0.949 mPa·s
318.15 K, 101 kPa, x1 = 0.02	0.906 mPa·s
323.15 K, 100 kPa, x2 = 0.013	10.85 mPa·s
323.15 K, 100 kPa, x2 = 0.037	10.58 mPa·s and 9.873 mPa·s
323.15 K, 100 kPa, x2 = 0.038	10.49 mPa·s
323.15 K, 100 kPa, x2 = 0.075	10.44 mPa·s
323.15 K, 100 kPa, x2 = 0.082	10.35 mPa·s
323.15 K, 101 kPa, x1 = 0.002	0.555 mPa·s
323.15 K, 101 kPa, x1 = 0.004	0.571 mPa·s
323.15 K, 101 kPa, x1 = 0.005	0.587 mPa·s
323.15 K, 101 kPa, x1 = 0.007	0.619 mPa·s
323.15 K, 101 kPa, x1 = 0.009	0.667 mPa·s
323.15 K, 101 kPa, x1 = 0.01	0.707 mPa·s and 0.747 mPa·s and 0.78 mPa·s
323.15 K, 101 kPa, x1 = 0.018	0.869 mPa·s
323.15 K, 101 kPa, x1 = 0.02	0.828 mPa·s
